Laboratory results from PubChem BioAssay AID1508612.

Experiment: passive permeability, PAMPA, ADME assay (AID 1508612)
Settings: pH 7.4, 30.0 min, 50.0 µM

Row | SMILES | Papp [×10⁻⁶ cm/s]
1 | Cc1cccc2nc(-c3cccnc3)c(Nc3ccc(C(C)C)cc3)n12 | > 1000
2 | O=C1Nc2ccccc2/C1=C/c1cccc(C(=O)O)c1 | 1.2
3 | O=C(O)C1CCN(c2ncc(-c3ccc4c(c3)OCCCO4)s2)CC1 | 10.1
4 | COc1cc2c(cc1Oc1cccc(N(C)C)c1)NC(=O)C21CCN(c2cnccn2)CC1 | > 1000
5 | CC(=O)N1CCc2cc(S(=O)(=O)NCCC3=CCCCC3)ccc21 | 444
6 | COCCNc1ncnc2onc(-c3ccc(F)cc3)c12 | 458
7 | O=C(c1cc2ccccc2[nH]1)N1CCc2c(n(Cc3cccnc3)n(CCc3ccccc3)c2=O)C1 | 381
8 | COc1ccc(-n2nc(C3CCCN(C(=O)c4ccccc4F)C3)[nH]c2=O)cc1 (stereo not given) | 476
9 | CC(=O)NCc1ccc(-c2csc(Nc3cc(C)cc(C)c3)n2)o1 | > 1000
10 | CN1C(=O)c2ccccc2[S@](=O)c2ccc(C(=O)NCc3ccc(Cl)cc3)cc21 | > 1000
11 | COc1ccc(-c2ccc3nc(-c4ccc(SC)cc4)oc3c2)c(OC)c1OC | < 1
12 | COc1cccc(C(=O)Nc2nnc(S(=O)(=O)N3CCOCC3)s2)c1 | 19.2
13 | CN(C)C(=O)c1ccc(-c2cc[nH]c(=O)c2N)cc1 | 12.1
14 | COc1cc(C(=S)N2CCN(CCO)CC2)ccc1OCc1ccc(C)cc1 | > 1000
15 | CCOc1ccc(CCNC(=O)c2cc3ccccc3n2Cc2cccc(C)n2)cc1OCC | > 1000
16 | CCc1ccccc1-n1c(SCC(=O)Nc2ccc(C)cc2)nc2n[nH]c(C)c2c1=N | 95.3
17 | N#Cc1ccc(-c2ccc(CNc3ccc(C4CCNCC4)cc3)o2)cc1 | 459
18 | N=c1c2ccccc2nnn1-c1ccc(C(F)(F)F)cc1 | 148
19 | Oc1ccc(-c2nc(C3CC3)nc3c2CCN(CC2CCCCC2)CC3)cc1 | > 1000
20 | O=C(CNC12CC3CC(CC(C3)C1)C2)c1ccc(Cl)cc1 | 635
21 | Cc1cc(-c2ccc(C)c(S(=O)(=O)NCC3CCN(Cc4ccc(F)cc4)CC3)c2)on1 | > 1000
22 | Cc1csc2nc(-c3cccc(NC(=O)c4ccccc4Cl)c3)cn12 | 651

Row | SMILES | Papp [×10⁻⁶ cm/s]
23 | COc1ccc(S(=O)(=O)N(C(=O)C(C)C)c2ccc3oc(=O)sc3c2)cc1 | 658
24 | CCOC(=O)C1CCN(C(=O)C(C)(C)NC(=O)Nc2ccc(Cl)cc2Cl)CC1 | 725
25 | O=C(Nc1ccc(S(=O)(=O)Nc2nccs2)cc1)c1ccnc(-c2ccccc2)c1 | < 1
26 | Cc1cccc(-c2cc(NC(=O)c3ccccc3C)n(-c3ccccc3)n2)c1 | 657
27 | Cc1cc(C)nc(NC(=S)N2CCN(Cc3ccc(C(F)(F)F)cc3)CC2)c1 | > 1000
28 | N#Cc1cccc(NC(=O)c2sc3nc4c(cc3c2N)N2CCC4CC2)c1 | 917
29 | NC[C@H](O)c1ccc(O)c(O)c1 | 5.7
30 | Cc1ccc(-c2nc3ccccc3o2)cc1NC(=O)COc1ccccc1 | 791
31 | CCCN1CNc2c(c(=O)[nH]c(=S)n2CCc2cccc(Cl)c2Cl)C1 | > 1000
32 | Clc1cccc(-c2ccc(-c3nnc(CCCc4ccc5cccnc5n4)o3)cc2)c1 | > 1000
33 | CC(C)(O)/C=C\C(=O)[C@](C)(O)[C@H]1[C@H](O)C[C@]2(C)[C@@H]3CC=C4[C@@H](C=C(O)C(=O)C4(C)C)[C@]3(C)C(=O)C[C@@]12C | 184
34 | O=C(N/N=C/c1ccc(Sc2ccccn2)o1)c1ccncc1 | 76.8
35 | Cc1cnc(-c2ccccc2OC(C)C)nc1NCc1ccc(-n2ccnn2)cc1 | > 1000
36 | O=C(Nc1ccccc1-c1cn2c(CN3CCNCC3)csc2n1)c1cnc2ccccc2n1 | 239
37 | CCCCOc1ccc(CC(=O)NO)cc1 | 133
38 | Cc1ccccc1-c1nc(CN2CCC(C(=O)NCCCN3CCOCC3)CC2)c(C)o1 | 432
39 | O=C(/C=C/c1cn(CC(O)CN2CCCCCC2)c2ccccc12)c1ccc(Br)cc1 (stereo not given) | 931
40 | CCOC(=O)c1ccc(N2C(=O)c3n[nH]c(-c4cccs4)c3C2c2ccc(Cl)cc2Cl)cc1 (stereo not given) | 85.8
41 | Cc1ccc(S(=O)(=O)Nc2cnccc2C(=O)Nc2nc(-c3ccco3)cs2)cc1 | 297
42 | CCOC(=O)c1cnc2ccc(-c3cncc(NS(=O)(=O)c4ccccc4)c3)cn12 | 705
43 | COc1cc2c3cc1Oc1c(O)c(OC)cc4c1[C@@H](Cc1ccc(cc1)Oc1cc(ccc1O)C[C@H]3N(C)CC2)N(C)CC4 | 327
44 | CN1CCc2cc3c(cc2C1)OCO3 | 316

Results, then the compound that gave them:

Row | Papp [×10⁻⁶ cm/s] | SMILES
45 | 259 | Cc1ccc(S(=O)(=O)Nc2cc(C(=O)Nc3nc(-c4ccccc4)cs3)ccn2)cc1
46 | 182 | COc1ccc(-c2ccc3c(N4CCOC[C@H]4C)nc(N4CCOC[C@H]4C)nc3n2)cc1CO
47 | 56.5 | O=C(Nc1cccnc1)c1cccs1
48 | 358 | Cc1ccc(S(=O)(=O)Nc2ccccc2C(=O)Nc2nc(-c3ccccc3)co2)cc1
49 | > 1000 | Oc1ccc(-c2nc(C3CC3)nc3c2CCN(Cc2ccc(F)cc2)CC3)cc1
50 | 253 | CCc1ccccc1Nc1ncnc2c1cnn2-c1ccc(Cl)cc1
51 | > 1000 | C[C@@H]1CN(CC(=O)N2CC(C)(C)c3ncc(Cc4ccc(F)cc4)cc32)[C@@H](CN2CCOC[C@H]2C)CN1
52 | > 1000 | Nc1c(S(=O)(=O)c2cccs2)c2nc3ccccc3nc2n1Cc1ccccc1
53 | > 1000 | O=C1CCCC2=C1C(c1[nH]ncc1Cl)N=C(Nc1nc3cccc(Cl)c3o1)N2 (stereo not given)
54 | 10.1 | CC(C)(C)c1ccc(-c2nc(SCCCOc3ccccc3)n3[nH]c(=O)cc3n2)cc1
55 | 366 | COC(=O)C1=COC(C)C2CN3CCc4c([nH]c5cc(OC)c(OC)cc45)C3CC12 (stereo not given)
56 | > 1000 | COc1ccccc1Nc1ccnc(N2CCN(C(=O)c3ccc(C)cc3)CC2)n1
57 | 825 | Cc1ccc(-c2nn(C(C)(C)C)c3ncnc(N)c23)cc1
58 | 159 | CCN1CCN(C(=O)c2cc(-c3ccc(F)cc3)c3nncn3n2)CC1
59 | 71.2 | Cc1ccc(S(=O)(=O)Nc2cncc(C(=O)Nc3nc(-c4ccccc4)cs3)c2)cc1
60 | < 1 | Oc1ccc(CNc2cccc(F)c2)c2cccnc12

Row | Papp [×10⁻⁶ cm/s] | SMILES
61 | 579 | NC(=O)c1cccc(-c2cc(Nc3ccc(OC(F)(F)F)cc3)ncn2)c1
62 | 396 | O=c1cc(-c2nc(Nc3ccc(F)c(F)c3)c3ccccc3n2)cc[nH]1
63 | 223 | Fc1ccc(Nc2nc(-n3ccnc3)nc3ccccc23)cc1F
64 | 62.2 | Cc1cc(C)nc(N2CCCC(C(=O)NCCc3ccc(F)cc3)C2)n1 (stereo not given)
65 | 1.67 | O=C(Cc1ccccc1)Nc1ccc(S(=O)(=O)Nc2nccs2)cc1
66 | 715 | O=C1c2ccccc2-n2c1nc1ccccc1c2=O
67 | 852 | Cc1cc(C)nc(NC(=S)N2CCN(c3cccc(OC(F)F)c3)CC2)c1
68 | 238 | CC1=NN(c2ccc(C(=O)O)cc2)C(=O)/C1=C/c1ccc(-c2cc(C)c(C)cc2[N+](=O)[O-])o1
69 | 44.4 | Cc1ccc(S(=O)(=O)Nc2cnccc2C(=O)Nc2nc(-c3ccc(Oc4ccccc4)cc3)cs2)cc1
70 | 851 | COc1ccc(-n2nc(C3CCCN(C(=O)Cc4ccc(F)cc4)C3)[nH]c2=O)cc1 (stereo not given)
71 | 130 | O=C(C=Cc1cccnc1)NCCCCC1CCN(C(=O)c2ccccc2)CC1
72 | 273 | Cc1ccc(NS(=O)(=O)c2cc3c(cc2N[C@H](C)CO)NC(=O)CC3)cc1C
73 | 303 | Cc1ccc(S(=O)(=O)Nc2ccccc2C(=O)Nc2ncc(-c3ccccc3)o2)cc1
74 | 361 | COCCNCc1ccc(-c2cc3nccc(Oc4ccc(NC(=S)NC(=O)Cc5ccc(F)cc5)cc4F)c3s2)nc1
75 | 833 | CCN(CC)CCCC(C)Nc1cc(/C=C/c2ccccc2Cl)nc2cc(Cl)ccc12 (stereo not given)
